Test results reported in PubChem BioAssay AID179 (DTP/NCI, 2004).
Activity calls are given as the source filed them.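 Rule for the calls: active = compounds giving half or more protection of infected cells from virus-caused growth loss, again on retest; inactive = the rest.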 Where a SMILES comes first, the peptide text is derived from it. [ ]: non-standard residue; d: D form. pGlu = O=C1CC[CH](C(=O)O)N1

System: CEM cells HIV-1 protection, formazan growth assay
Test: NCI AIDS Antiviral Assay
Conditions: for IC50: measured here: growth of uninfected CEM cells
Outline: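 Protection of CEM cells against HIV-1 was scored from cell growth (soluble formazan) across five concentrations, with parallel uninfected cells. Lack of protection may reflect toxicity.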

| SMILES | EC50 | IC50 | outcome |
| --- | --- | --- | --- |
| CCOC(=O)c1sc2nc1CSc1sc(=S)sc1SCc1nc(sc1C(=O)OCC)-c1nc(c(C(=O)OCC)s1)CSc1sc(=S)sc1SCc1nc-2sc1C(=O)OCC | > 200 µM | > 200 µM | – |
| Cc1nc(CC#N)n[nH]1 | > 200 µM | > 200 µM | – |
| O=C(N/N=C/c1ccccc1)c1c(F)c(F)c(F)c(F)c1F | > 200 µM | 112 µM | – |
| CSC1=C(C)S/C(=C\c2ccc(/C=C3\SC(C)=C(SC)S3)cc2)S1 | – | – | inactive |
| CC(C)(C)C(=O)N(C(=S)OCc1ccccn1)c1ccccc1 | > 200 µM | 40.7 µM | – |
| CC(C)NCC(O)c1cc(OCc2ccccc2)c(OCc2ccccc2)cc1NC(=O)CCC(=O)O (centres undefined) | > 200 µM | 1.58 µM | – |
| COc1ccc(Nc2nc3ccc(C(F)(F)F)cc3nc2-c2ccccc2)cc1OC | > 17 µM | > 17 µM | – |
| CC(C)CCC[C@@H](C)C1CCC2[C@@H]3CC=C4C[C@@H](OC(=O)CCC(=O)O)CC[C@]4(C)C3CC[C@@]21C (some centres undefined) | – | – | inactive |
| CN1C(=O)C2(C)SSC1(C)C(=O)N2C | > 200 µM | 12 µM | – |
| COc1ccc(NC(=O)Oc2ccc3c(C)cc(=O)oc3c2)c(OC)c1 (tested in a mixture with another compound) | > 100 µM | 46.8 µM | – |
| COc1ccc(-c2cc(=O)c3ccc(O)cc3o2)cc1 | > 83.2 µM | > 83.2 µM | – |
| NC(=O)N/N=C/c1ccc(Cl)cc1 | > 132 µM | > 132 µM | – |
| COc1ccc(/C(C)=N/NC(N)=S)c(OC)c1 | – | – | inactive |
| CCCCCCCCCCCCCCCCN1c2ccccc2C(C)(C)C12C=Cc1cccc([N+](=O)[O-])c1O2 (centres undefined) | > 200 µM | > 200 µM | – |
| O=C1CCCC1(CCSc1ccccc1)C(CCCl)Sc1ccccc1 (centres undefined) | > 8.91 µM | > 8.91 µM | – |
| COC(=O)c1nc2c(C)c(O)c(Oc3c(C)c(O)c(O)c([C@H](C)CCC=C(C)C)c3O)c([C@H](C)CCC=C(C)C)c2o1 | > 200 µM | 7.94 µM | – |
| COc1ccc(OC(C)C(=O)O)c2c(=O)ccccc12 (centres undefined) | – | – | inactive |
| CN=C(NC)c1ncn(C2OC(CO)C(O)C2O)n1 (centres undefined) | – | – | inactive |
| Clc1ccc(C(c2ccccc2Cl)C(Cl)Cl)cc1 (centres undefined) | > 200 µM | 61.7 µM | – |
| O=C1CC(C(=O)N2CCCCC2)n2c(=O)n(-c3ccccc3)c(=O)n2C1 (centres undefined) | > 200 µM | > 200 µM | – |
| COc1cc2c(cc1OC)NC(=O)CC(=O)N2 | > 200 µM | > 200 µM | – |
| O=S1(=O)Cc2ccc3c4c2-c2c(ccc5ccc(c-4c25)CS(=O)(=O)C3)C1 | > 200 µM | 17 µM | – |

| SMILES | EC50 | IC50 | outcome |
| --- | --- | --- | --- |
| COc1ccc(/C=N\N2C(=O)Cc3ccccc32)cc1 | > 37.2 µM | > 37.2 µM | – |
| COc1cc2c(cc1OC)C1=NN(c3ccccc3)C(=O)C1CC2 (centres undefined) | > 8.51 µM | > 8.51 µM | – |
| CO[C@H]1/C=C/O[C@@]2(C)Oc3c(C)c(O)c4c(O)c(c(/C=N/N5CCN(C)CC5)c(O)c4c3C2=O)NC(=O)/C(C)=C\C=C\[C@H](C)[C@H](O)[C@@H](C)[C@@H](O)[C@@H](C)[C@H](OC(C)=O)[C@@H]1C | > 151 µM | 93.3 µM | – |
| O=C(O)CCC(NC(=O)c1ccc(Oc2nc3ccccc3nc2C(=O)O)cc1)C(=O)O (centres undefined) | > 200 µM | > 200 µM | – |
| O=C(O)C1CCC(c2ccc(Cl)cc2Cl)N1 (centres undefined) | > 200 µM | > 200 µM | – |
| CCN(C(=N)C#N)c1ccccc1 | > 513 µM | 302 µM | – |
| CC[C@@]12N=C(N(C)C)C[C@]1(O)ON=C2C | > 200 µM | > 200 µM | – |
| S=C1OC2CCCC[C@H]2O1 (some centres undefined) | > 120 µM | > 120 µM | – |
| CC(=O)CC1(OC(=O)C2C(C=C(C)C)C2(C)C)C(=O)Nc2ccccc21 (centres undefined) | > 200 µM | 105 µM | – |
| CC(C)S(=O)(=O)ON1C(=O)c2ccc([N+](=O)[O-])cc2C1=O | > 115 µM | 18.2 µM | – |
| C(#CP(c1ccccc1)c1ccccc1)P(c1ccccc1)c1ccccc1.C(#CP(c1ccccc1)c1ccccc1)P(c1ccccc1)c1ccccc1.C(#CP(c1ccccc1)c1ccccc1)P(c1ccccc1)c1ccccc1.C(#CP(c1ccccc1)c1ccccc1)P(c1ccccc1)c1ccccc1.[Pt].[Pt] | > 6.92 µM | 4.79 µM | – |
| CC(C)(C)n1c(=O)n(C(=O)C(Cl)(Cl)Cl)n(C(=O)C(Cl)(Cl)Cl)c1=O | > 200 µM | > 200 µM | – |
| O=c1[nH]c2ccccc2n1C1CCN(CCOc2ccccc2)CC1 | > 200 µM | 23.4 µM | – |
| O=C1CN2Cc3cc(N4CCOCC4)ccc3N=C2N1 | > 257 µM | 40.7 µM | – |
| S=C(S)N(Cc1ccccc1)Cc1ccccc1 | > 200 µM | 24.5 µM | – |
| C/C=C/C(C1=C(O)c2ccccc2C(=O)C1=O)C1=C(O)c2ccccc2C(=O)C1=O | > 200 µM | 83.2 µM | – |
| CCCc1c(-c2ccc(OC)cc2)c(=O)oc2cc(O)ccc12 | > 200 µM | 53.7 µM | – |
| COc1ccc2cc1Oc1cc3c(cc1OC)CC[N+](C)(C)C3Cc1ccc(cc1)Oc1c(OC)c(OC)cc3c1C(C2)[N+](C)(C)CC3 (centres undefined) | > 200 µM | > 200 µM | – |
| CC(C)[Si](CC1=CCCCC12C(=O)N(COCC[Si](C)(C)C)c1ccccc12)(C(C)C)C(C)C (centres undefined) | > 200 µM | > 200 µM | – |
| COc1ccccc1/C=C(\C#N)C(=O)c1ccccc1 | > 20 µM | > 20 µM | – |
| CC1=NN(C(=O)CC(=O)N(C(=O)c2ccccc2)c2ccc(Cl)cc2)C(=O)C1N=Nc1ccc([N+](=O)[O-])cc1 (centres undefined) | 174 µM | > 200 µM | – |
| COc1ccc(OCc2nc3cc(C(F)(F)F)ccc3nc2-c2ccccc2)cc1 | > 200 µM | > 200 µM | – |

| SMILES | EC50 | IC50 | outcome |
| --- | --- | --- | --- |
| O=[N+]([O-])c1ccccc1S(=O)(=O)c1ccccc1 | 18.2 µM | 170 µM | – |
| O=C(O)c1c([N+](=O)[O-])cc(C(F)(F)F)cc1[N+](=O)[O-] | – | – | inactive |
| COc1ccc(/C=C/C(=O)c2cc(CN(C)C)c(O)c(CN(C)C)c2)cc1 | > 200 µM | 40.7 µM | – |
| NC(N)=NC(CSSCC(N=C(N)N)C(=O)O)C(=O)O (centres undefined) | > 200 µM | > 200 µM | – |
| N#CC1(c2ccccc2)CCOCC1 | > 501 µM | > 501 µM | – |
| COC(=O)C1CCC(=O)N1CN(C(C)=O)c1cccc(O)c1 (centres undefined) | > 200 µM | > 200 µM | – |
| CC(=O)Oc1c(C)cc2c(c1C)C(C)CN2C(C)=O (centres undefined) | > 200 µM | > 200 µM | – |
| O=C(c1ccc(Cl)cc1)c1c(O)c2ccccc2oc1=O | > 200 µM | > 200 µM | – |
| COC(=O)C1Cc2c([nH]c3ccccc23)-c2[nH]c3ccccc3c2CC(NC(C)=O)C(=O)NCC(=O)NCC(=O)N1 (centres undefined) | > 200 µM | > 200 µM | – |
| O=C(NN1C(=O)C(Cl)C1c1ccccc1Cl)c1ccccc1O (centres undefined) | > 14.8 µM | > 14.8 µM | – |
| CC(=O)CC(=O)NC=O | > 263 µM | > 263 µM | – |
| CC(=O)Nc1ncc([N+](=O)[O-])s1 | > 200 µM | > 200 µM | – |
| O=C(O)CCC(=O)NNC(=O)CCC(=O)O | > 155 µM | > 155 µM | – |
| COc1ccccc1C1=C2C(=O)N(C)C(c3ccccc3OC)=C2C(=O)N1C | > 100 µM | > 100 µM | – |
| CCNC(=O)Sc1ccccc1C(=O)N[C@H](C)C(N)=O | 1.15 µM | 93.3 µM | – |
| CCOC(=O)C(=[N+]=[N-])C(=O)CSC#N | > 200 µM | 10.5 µM | – |
| CSc1nc(NC2OC(CO)C(O)C(O)C2O)cc(=O)[nH]1 (centres undefined) | – | – | inactive |
| O=C(O)CN1CCN2CCCCCN(CC1)CCN(CC(=O)O)CC2 | > 200 µM | 12.6 µM | – |
| Cc1cc[c]([Sb](=[O])([OH])[c]2ccc(C)cc2)cc1 | > 5.01 µM | 0.851 µM | – |
| COC(=O)c1ccccc1N1C(=O)Cc2ccccc2C1=O | – | – | inactive |
| CCOc1ccc(NC(=O)CC2Sc3ccccc3NC2=O)cc1 (centres undefined) | > 11 µM | > 11 µM | – |
| CN(C)CCc1c2c(nc3ccccc13)C(=O)c1ccccc1C2=O | > 200 µM | 0.933 µM | – |

| SMILES | EC50 | IC50 | outcome |
| --- | --- | --- | --- |
| CC(C)CC(NC(=O)OC(C)(C)C)C(=O)Nc1ccc(Nc2nc(F)nc(-c3c4ccccc4c4n3CCS4)n2)cc1 (centres undefined) | > 6.03 µM | > 6.03 µM | – |
| COC(=O)C1([Se]c2ccccc2)CCN2CCC(OCc3ccccc3[N+](=O)[O-])C21 (centres undefined) | > 200 µM | > 200 µM | – |
| CC(C)[Si]1(C(C)C)OCC2OC(n3ccc(=O)[nH]c3=O)C([Se]c3ccccc3)C2O[Si](C(C)C)(C(C)C)O1 (centres undefined) | > 200 µM | 10.7 µM | – |
| Oc1[nH]c2ccccc2c1N=NC(=S)N1CCCC1 | > 200 µM | 1.55 µM | – |
| CC(C(=O)O)C1Nc2ccccc2NC1=O (centres undefined) | > 200 µM | 83.2 µM | – |
| COc1cc(/C=C2/C(=O)N(C(=O)c3ccccc3O)N=C2C)cc(OC)c1OC | > 47.9 µM | 0.24 µM | – |
| O=[N+]([O-])c1cccc2nc3ccccc3c(NCCCNc3c4ccccc4nc4cccc([N+](=O)[O-])c34)c12 | > 200 µM | 0.0631 µM | – |
| O=C(O)c1cccc(P(=O)(O)O)c1 | > 200 µM | > 200 µM | – |
| COc1ccc2nc3c([N+](=O)[O-])ccc(NCCCN(C)C)c3c(N)c2c1 | > 200 µM | 0.195 µM | – |
| COc1ccc(Nc2nc3c(N)cc(C(F)(F)F)cc3nc2-c2ccccc2)cc1OC | > 16.2 µM | > 16.2 µM | – |
| CC(NC(=O)C1CCC(=O)N1)C(=O)N1CCCC1C(N)=O (stereo not drawn) ([pGlu]-Ala-Pro-NH2; configuration not given here) | > 200 µM | > 200 µM | – |
| CCOC(=O)c1cn(CC)c(=O)n2c1nc1ccccc12 | > 200 µM | 117 µM | – |
| O=c1[nH]c2ccccc2c(=O)n1/N=C/c1ccc(Cl)cc1 | > 200 µM | > 200 µM | – |
| Cc1ccc(C)c(NC(=O)C(=O)C(c2cnc3ccc([N+](=O)[O-])cc3n2)[N+](=O)[O-])c1 (centres undefined) | > 123 µM | > 123 µM | – |
| Cn1c(=O)nc2n(-c3ccc(F)c(F)c3)c3ccccc3nc-2c1=O | – | – | inactive |
| COc1ccc2c(c1)O[C@H]1c3ccc(O)cc3OC[C@@H]21 | – | – | inactive |
| O=C(/C=C(\Cl)c1c[nH]c(=O)[nH]c1=O)c1ccccc1 | – | – | inactive |
| Cn1c2ccccc2c2nnc(N/N=C/c3ccc([N+](=O)[O-])o3)nc21 | > 200 µM | > 200 µM | – |
| C/C(CC(O)(C(F)(F)F)C(F)(F)F)=N/Nc1ccc([N+](=O)[O-])cc1[N+](=O)[O-] | > 200 µM | 1.41 µM | – |
